Series [1] concerns CYP1A1. Kind of series: Inhibition of 7-ethoxyresorufin O-deethylase (EROD) activity in porcine hepatic microsomes. Here is the method:
(§1) All procedures were done on ice.
(§2) All steroids were dissolved in methanol. […] Kinetic studies were performed under linear conditions.
(§3) The activities were measured in pooled microsomes, thus taking into consideration between-individual variations in enzyme activities and potential response to the presence of steroids.

Series [2] addresses T1, CYP1A2 (Sus scrofa, UniProt F1SJ26).
T1 sequence (F1SJ26 1-516): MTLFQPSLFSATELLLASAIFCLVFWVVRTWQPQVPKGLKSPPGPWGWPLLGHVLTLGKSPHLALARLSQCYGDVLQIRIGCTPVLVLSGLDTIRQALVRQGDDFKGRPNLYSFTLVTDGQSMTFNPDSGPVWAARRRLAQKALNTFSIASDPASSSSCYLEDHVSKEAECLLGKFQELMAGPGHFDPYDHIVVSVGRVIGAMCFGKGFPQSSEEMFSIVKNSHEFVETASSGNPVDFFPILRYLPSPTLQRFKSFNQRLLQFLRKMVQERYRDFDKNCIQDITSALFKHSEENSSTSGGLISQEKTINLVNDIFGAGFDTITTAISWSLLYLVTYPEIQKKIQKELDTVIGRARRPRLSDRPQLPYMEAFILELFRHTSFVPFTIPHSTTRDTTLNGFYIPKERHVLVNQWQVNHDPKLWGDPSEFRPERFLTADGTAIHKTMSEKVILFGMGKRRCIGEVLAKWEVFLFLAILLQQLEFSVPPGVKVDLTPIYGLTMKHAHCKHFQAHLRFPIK
Put plainly: Inhibition of 7-methoxyresorufin O-demethylase (MROD) activity in porcine hepatic microsomes. Here is the method:
as §1, §2, §3

For series [3], the target named is T2, CYP2E1 (Sus scrofa, UniProt P79383). Kind of series: Inhibition of p-nitrophenol hydroxylase (PNPH) activity in porcine hepatic microsomes. Here is the method:
as §1, §2, §3

Series [4] has as its system CYP1A1. Kind of series: Enzyme kinetic analysis of EROD (resorufin formation from 7-ethoxyresorufin) in porcine hepatic microsomes. The conditions noted are these: CI 95% confidence interval. Format: in vitro ADME. As to the method:
as §1, §2
V=(Vmax1*S)/(Km1+S)+(V max2*S)/(Km2+S),
where Km1 and Km2 are Michaelis constants for the high- and low-affinity components, respectively, and Vmax1 and Vmax2 are the maximum reaction velocities for the high- and low-affinity components, respectively.

Series [5] concerns the target T1, CYP1A2. Here is the method:
as §1, §2

The test system of series [6] is CYP1A1. More on the design: method as in Zamaratskaia et al., [2009]. The conditions noted are these: 1.8 to 72 pmol/ml; microsomes from entire and castrated male pigs; ref Zamaratskaia et al., [2009]; cited from earlier work.
The target of series [7] is T2, CYP2E1. As to conditions: cited from earlier work.
Setting [8] is: steroid 0.55, 1.0 and 100.0 µM, pooled microsomes from entire male pigs.
Setting [9] is: all concentrations tested (up to 100.0 µM), microsomes from mature male pigs.
[10] abbreviates: 100 µM steroid, pooled microsomes from three entire male pigs, altered = differs from control by at least 30%.
Setting [11] is: lower concentrations (0.02 and 1.0 µM), pooled microsomes from entire male pigs.

Read-outs that look alike come from different tables or passages of the source.

T2 sequence (P79383 whole entry): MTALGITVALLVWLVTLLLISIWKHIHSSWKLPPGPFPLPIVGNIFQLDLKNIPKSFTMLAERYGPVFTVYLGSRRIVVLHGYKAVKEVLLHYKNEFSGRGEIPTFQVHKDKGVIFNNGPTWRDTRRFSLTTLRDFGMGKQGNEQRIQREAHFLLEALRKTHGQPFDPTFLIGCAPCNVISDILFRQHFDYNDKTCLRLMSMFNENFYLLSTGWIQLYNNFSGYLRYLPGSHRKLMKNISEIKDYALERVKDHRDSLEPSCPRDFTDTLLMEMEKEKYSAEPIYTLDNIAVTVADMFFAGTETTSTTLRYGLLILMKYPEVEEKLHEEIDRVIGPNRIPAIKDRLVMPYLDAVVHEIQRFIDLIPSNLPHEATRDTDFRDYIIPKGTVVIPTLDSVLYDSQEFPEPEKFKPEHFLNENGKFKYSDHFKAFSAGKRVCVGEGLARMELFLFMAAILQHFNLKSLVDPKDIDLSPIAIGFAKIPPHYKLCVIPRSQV

As for `C[C@]12CC[C@H](O)C[C@@H]1CC[C@@H]1[C@@H]2CC[C@]2(C)C=CC[C@@H]12` [3β-androstenol], the “Inhibition of EROD activity” value with CYP1A1 [1] (setting [8]) is “only 17β-estradiol and 17α-estradiol inhibited”. Also, the “Inhibition of MROD activity” value at CYP1A2 [2] (setting [8]) was “only 17β-estradiol and 17α-estradiol inhibited”. Further, the “Inhibition of PNPH activity” value on CYP2E1 [3] (setting [9]) is “inhibited only by 100 µM of 17β-estradiol”.
In general, Km refers to the substrate concentration at which the rate is half of its maximum. In the case of `CCOc1ccc2nc3ccc(=O)cc-3oc2c1` [7-ethoxyresorufin], the Michaelis constant (Km) in the series with CYP1A1 [4] (high affinity component) came out at 0.01 µM. Further, in the series on CYP1A1 [4] (low affinity component), the Km came to 1.7 µM and the “Vmax, pmol/min/mg (CI)” value is reported as 15.2 (9.64–20.71) pmol/min/mg.
In the case of `COc1ccc2nc3ccc(=O)cc-3oc2c1` [7-methoxy-resorufin, 7-methoxyresorufin], the Km on CYP1A2 [5] is 130 nM.
For `C[C@]12CC[C@@H]3c4ccc(O)cc4CC[C@H]3[C@@H]1CC[C@H]2O` [17α-estradiol], the “Inhibition of EROD activity” value is recorded as “inhibited” in the series on CYP1A1 [1] (setting [10]) and “no inhibitory effect” with CYP1A1 [1] (setting [11]). The “Inhibition of MROD activity” value on CYP1A2 [2] (setting [10]) was “inhibited”; at CYP1A2 [2] (setting [11]), “no inhibitory effect”. Also, the “Inhibition of PNPH activity” value on CYP2E1 [3] (setting [9]) is given as “inhibited only by 100 µM of 17β-estradiol”.
As for `C[C@]12CC[C@@H]3c4ccc(O)cc4CC[C@H]3[C@@H]1CC[C@@H]2O` [17β-estradiol], the “Inhibition of EROD activity” value in the series on CYP1A1 [1] (setting [10]) is “inhibited”; in the series with CYP1A1 [1] (setting [11]) it was “no inhibitory effect”. The “Inhibition of MROD activity” value was “inhibited” on CYP1A2 [2] (setting [10]) and “no inhibitory effect” on CYP1A2 [2] (setting [11]). Moreover, the “Inhibition of PNPH activity” value was “Inhibition of PNPH activity was observed” at CYP2E1 [3] (100 µM steroid, pooled microsomes from three mature entire male pigs); “observed only in the presence of high concentrations” on CYP2E1 [3] (lower concentrations (0.02 and 1.0 µM), microsomes from mature male pigs); “inhibit” at CYP2E1 [7] (physiological concentrations, ref Rasmussen et al. (2010a)). In the series on CYP1A1 [6], the “Effect on EROD activity” value is on record as “did not alter”. Moreover, at CYP2E1 [7] (microsomes from prepubertal male pigs, ref Zamaratskaia et al. ([2007])), the “Type of inhibition of PNPH” value was “mixed inhibitor”.
As to `C[C@]12CCC(=O)C[C@@H]1CC[C@@H]1[C@@H]2CC[C@]2(C)[C@@H](O)CC[C@@H]12` [DHT, dihydrotestosterone], the “Inhibition of EROD activity” value in the series with CYP1A1 [1] (setting [8]) is “only 17β-estradiol and 17α-estradiol inhibited”. For the same compound, at CYP1A2 [2] (steroid 0.55, 1.0 and 100.0 µM, relative to control incubations), the “Magnitude of MROD inhibition” value was no more than 30%. Moreover, the “Inhibition of PNPH activity” value at CYP2E1 [3] (setting [9]) is given as “inhibited only by 100 µM of 17β-estradiol”.

Values taken from publication PMC3131678 (Interdisciplinary Toxicology, 2011).
